Ki and melting point data for 37 compounds are collected here from patent US7589097B2, “Triazol[4,5-d] pyramidine derivatives and their use as purinergic receptor antagonists” (Vernalis Research Limited, priority 2001, dated 2009).

Data set [1] has as its target human adenosine A2A receptors (Homo sapiens, UniProt P29274). As to the kind of experiment: Binding affinities at hA2A receptors, displacement of [3H]-CGS 21680. From the text:
Adenosine Receptor Binding Binding Affinities at hA2A Receptors

Some results are limits rather than exact numbers.

Chain of human adenosine A2A receptors (P29274 whole entry): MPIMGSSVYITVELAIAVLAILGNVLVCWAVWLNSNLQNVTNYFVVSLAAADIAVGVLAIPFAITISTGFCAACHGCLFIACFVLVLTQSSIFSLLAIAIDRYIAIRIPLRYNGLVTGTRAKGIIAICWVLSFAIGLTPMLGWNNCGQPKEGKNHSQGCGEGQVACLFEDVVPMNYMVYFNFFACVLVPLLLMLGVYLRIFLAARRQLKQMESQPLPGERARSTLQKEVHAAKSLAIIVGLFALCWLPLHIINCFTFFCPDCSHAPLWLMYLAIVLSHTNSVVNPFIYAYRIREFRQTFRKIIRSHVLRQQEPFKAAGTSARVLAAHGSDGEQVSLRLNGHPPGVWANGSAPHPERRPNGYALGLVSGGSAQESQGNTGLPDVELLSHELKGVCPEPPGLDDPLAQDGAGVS

By Ki is commonly meant a dissociation constant, usually derived from enzyme kinetics or from competition with a known ligand. `Nc1nc(-c2ccco2)c2nnn(Cc3ccccc3F)c2n1` [Example 3, 3-(2-Fluorobenzyl)-7-(2-furyl)-3H-[1,2,3]triazolo[4,5-d]pyrimidine-5-amine] yielded an inhibitory constant (Ki) in data set [1] of 3 nM.

What is called melting point is the temperature of the solid-liquid transition. In turn, `Nc1nc(-c2ccco2)c2nnn(Cc3ccc(Cl)cc3N)c2n1` [Example 120, 3-(2-amino-4-chlorobenzyl)-7-(2-furyl)-3H-[1,2,3]triazolo[4,5-d]pyrimidine-5-amine] registered a melting point of 211.4 to 211.6 °C. In data set [1], this compound showed a Ki of 1 nM.

`Nc1nc(-c2ccco2)c2nnn(Cc3cc(I)ccc3F)c2n1` [Example 169, 3-(2-fluoro-5-iodobenzyl)-7-(2-furyl)-3H-[1,2,3]triazolo[4,5-d]pyrimidine-5-amine] came in with a Ki in data set [1] of 2 nM.

`Nc1nc(-c2ccco2)c2nnn(Cc3cccc(NCc4ccccn4)c3)c2n1` [Example 255, 3-(3-(2-pyridylmethylamino)benzyl)-7-(2-furyl)-3H-[1,2,3]triazolo[4,5-d]pyrimidine-5-amine] came in with a melting point of 184.5 to 184.6 °C. The Ki in data set [1] turned out to be 4 nM.

As to `Nc1nc(-c2ccco2)c2nnn(Cc3cccc([N+](=O)[O-])c3)c2n1` [Example 4, 7-(2-furyl)-3-(3-nitrobenzyl)-3H-[1,2,3]triazolo[4,5-d]pyrimidine-5-amine], affinity in data set [1] was put at a Ki of 4 nM.

The compound `Nc1nc(-c2ccco2)c2nnn(Cc3ccc4ccccc4n3)c2n1` [Example 188, 7-(2-furyl)-3-(quinolin-2-ylmethyl)-3H-[1,2,3]triazolo[4,5-d]pyrimidine-5-amine] registered a melting point of 228.9 to 229.9 °C. This compound also displayed a Ki in data set [1] of 1 nM.

In data set [1], `Nc1nc(-c2ccco2)c2nnn(Cc3ccc(O)cc3)c2n1` [Example 221, 3-(4-Hydroxybenzyl)-7-(2-furyl)-3H-[1,2,3]triazolo[4,5-d]pyrimidine-5-amine] had a Ki of 2 nM.

On to `Nc1nc(-c2ccco2)c2nnn(Cc3c(F)cccc3F)c2n1` [Example 41, 3-(2,6-difluorobenzyl)-7-(2-furyl)-3H-[1,2,3]triazolo[4,5-d]pyrimidine-5-amine], for which the melting point was in the range of 213.8 to 213.9 °C. For the same compound, in data set [1], the Ki was 2 nM.

Turning to `CN(C)Cc1cccc(Cn2nnc3c(-c4ccco4)nc(N)nc32)n1` [Example 233, 3-(6-(N,N-dimethylamino)methyl-2-pyridylmethyl)-7-(2-furyl)-3H-[1,2,3]triazolo[4,5-d]pyrimidine-5-amine], the melting point is 219.7 to 222.3 °C. Also, the Ki in data set [1] amounted to 4 nM.

`Nc1nc(-c2ccco2)c2nnn(Cc3ccccc3[N+](=O)[O-])c2n1` [Example 12, 7-(2-furyl)-3-(2-nitrobenzyl)-3H-[1,2,3]triazolo[4,5-d]pyrimidine-5-amine] registered a Ki in data set [1] of 7 nM.

As to `Cc1cccc(Cn2nnc3c(-c4ccco4)nc(N)nc32)c1[N+](=O)[O-]` [Example 92, 7-(2-furyl)-3-(3-methyl-2-nitrobenzyl)-3H-[1,2,3]triazolo[4,5-d]pyrimidine-5-amine], the melting point fell in the range of 267.9 to 268.5 °C. This compound yielded a Ki in data set [1] of 2 nM.

The compound `Nc1nc(-c2ccco2)c2nnn(Cc3cccc4cccnc34)c2n1` [Example 107, 7-(2-furyl)-3-(8-quinolinylmethyl)-3H-[1,2,3]triazolo[4,5-d]pyrimidine-5-amine] showed a melting point of 276.4 to 277.4 °C. In addition, the affinity in data set [1] corresponds to a Ki of 2 nM.

Compound `COc1cc(F)c(Cn2nnc3c(-c4ccco4)nc(N)nc32)c(F)c1` [Example 156, 3-(2,6-Difluoro-4-methoxybenzyl)-7-(2-furyl)-3H-[1,2,3]triazolol[4,5-d]pyrimidine-5-amine] returned a melting point of 274.2 to 274.3 °C. In addition, affinity in data set [1] was put at a Ki of 2 nM.

Turning to `Nc1nc(-c2ccco2)c2nnn(Cc3cc([N+](=O)[O-])ccc3F)c2n1` [Example 78, 3-(2-fluoro-5-nitrobenzyl)-7-(2-furyl)-3H-[1,2,3]triazolo[4,5-d]pyrimidine-5-amine], affinity in data set [1] was put at a Ki of 3 nM. That is a single-digit nanomolar value.

Compound `COc1cccc(Cn2nnc3c(-c4ccco4)nc(N)nc32)c1` [Example 11, 7-(2-furyl)-3-(3-methoxybenzyl)-3H-[1,2,3]triazolo[4,5-d]pyrimidine-5-amine] gave an inhibition constant Ki in data set [1] of 2 nM.

Consider `N#Cc1cccc(Cn2nnc3c(-c4ccco4)nc(N)nc32)c1` [Example 15, 3-(3-cyanobenzyl)-7-(2-furyl)-3H-[1,2,3]triazolo[4,5-d]pyrimidine-5-amine], for which the Ki in data set [1] came out at 4 nM.

Turning to `Nc1nc(-c2ccco2)c2nnn(Cc3ccc(Cl)s3)c2n1` [Example 8, 3-(5-chloro-2-thienyl)methyl-7-(2-furyl)-3H-[1,2,3]triazolo[4,5-d]pyrimidine-5-amine], affinity in data set [1] was put at a Ki of 3 nM.

Compound `C=Cc1cccc(Cn2nnc3c(-c4ccco4)nc(N)nc32)n1` [Example 202, 7-(2-furyl)-3-(6-vinyl-2-pyridylmethyl)-3H-[1,2,3]triazolo[4,5-d]pyrimidine-5-amine] displayed a melting point of 210.5 to 211.6 °C. This compound came in with a Ki in data set [1] of 1 nM.

As for `Nc1nc(-c2ccco2)c2nnn(Cc3c(F)cc(O)cc3F)c2n1` [Example 149, 3-(2,6-difluoro-4-hydroxybenzyl)-7-(2-furyl)-3H-[1,2,3]triazolo[4,5-d]pyrimidine-5-amine], the Ki in data set [1] came to 1 nM.

In turn, `Nc1nc(-c2ccco2)c2nnn(Cc3ccccc3N)c2n1` [Example 13, 3-(2-aminobenzyl)-7-(2-furyl)-3H-[1,2,3]triazolo[4,5-d]pyrimidine-5-amine] yielded a Ki in data set [1] of 2 nM.

Consider `Cc1csc(-c2nc(N)nc3c2nnn3Cc2cccc([N+](=O)[O-])c2)n1` [Example 109, 7-(4-methyl-2-thiazolyl)-3-(3-nitrobenzyl)-3H-[1,2,3]triazolo[4,5-d]pyrimidine-5-amine], for which the melting point was 289.8 to 289.9 °C.

In turn, `Cc1ccc(-c2nc(N)nc3c2nnn3Cc2ccc([N+](=O)[O-])cc2)o1` [Example 268, 7-(5-methyl-2-furyl)-3-(4-nitrobenzyl)-3H-[1,2,3]triazolo[4,5-d]pyrimidine-5-amine] showed a melting point of 248.1 to 249 °C.

Take `CC(=O)NCc1ccccc1Cn1nnc2c(-c3ccco3)nc(N)nc21` [Example 178, N-(2-(5-amino-7-(2-furyl)-3H-[1,2,3]triazolo[4,5-d]pyrimidin-3-ylmethyl)benzyl)acetamide]: the melting point was in the range of 216.7 to 218.4 °C.

In turn, `N#CCc1cccc(Cn2nnc3c(-c4ccco4)nc(N)nc32)n1` [Example 220, 3-(6-Cyanomethyl-2-pyridylmethyl)-7-(2-furyl)-3H-[1,2,3]triazolo[4,5-d]pyrimidine-5-amine] came in with a melting point of 223.3 to 223.4 °C.

Consider `Cc1ccc(-c2nc(N)nc3c2nnn3Cc2cccc(N)c2C)o1` [Example 180, 3-(3-amino-2-methylbenzyl)-7-(5-methyl-2-furyl)-3H-[1,2,3]triazolo[4,5-d]pyrimidine-5-amine], for which the melting point lay in the range of 278.4 to 279.9 °C.

On to `Cc1ccc(-c2nc(N)nc3c2nnn3Cc2cccc([N+](=O)[O-])c2C)o1` [Example 267, 7-(5-methyl-2-furyl)-3-(2-methyl-3-nitrobenzyl)-3H-[1,2,3]triazolo[4,5-d]pyrimidine-5-amine], for which the melting point is 255.6 to 255.7 °C.

On to `Nc1nc(-c2ccco2)c2nnn(Cc3ccc4nonc4c3)c2n1` [Example 111], for which the melting point lay in the range of 244.1 to 244.6 °C.

Compound `COc1ccc([N+](=O)[O-])cc1Cn1nnc2c(-c3ccco3)nc(N)nc21` [Example 66, 7-(2-Furyl)-3-(2-methoxy-5-nitrobenzyl)-3H-[1,2,3]triazolo[4,5-d]pyrimidine-5-amine] yielded a melting point of 243.4 to 243.9 °C.

The compound `CC(C)c1ccc(Cn2nnc3c(-c4ccco4)nc(N)nc32)cn1` [Example 228, 7-(2-furyl)-3-(6-isopropyl-3-pyridylmethyl)-3H-[1,2,3]triazolo[4,5-d]pyrimidine-5-amine] registered a melting point of 164.3 to 169.3 °C.

As to `C=CCOCc1cccc(Cn2nnc3c(-c4ccc(C)o4)nc(N)nc32)n1` [Example 186, 3-(6-allyloxymethyl-2-pyridylmethyl)-7-(5-methyl-2-furyl)-3H-[1,2,3]triazolo[4,5-d]pyrimidine-5-amine], the melting point lay within 149 to 149.3 °C.

Regarding `COc1cc(Cn2nnc3c(-c4ccco4)nc(N)nc32)ccc1[N+](=O)[O-]` [Example 133, 7-(2-furyl)-3-(3-methoxy-4-nitrobenzyl)-3H [1,2,3]triazolo[4,5-d]pyrimidine-5-amine], the melting point was 209.7 to 209.9 °C.

With `Cc1ccc(-c2nc(N)nc3c2nnn3Cc2ccc(N)c(F)c2)o1` [Example 174, 3-(4-amino-3-fluorobenzyl)-7-(5-methyl-2-furyl)-3H-[1,2,3]triazolo[4,5-d]pyrimidine-5-amine], the melting point is > 200 °C (dec.).

The compound `CC(=O)Nc1ccc(Cn2nnc3c(-c4ccco4)nc(N)nc32)cc1` [Example 193, N-(4-(5-amino-7-(2-furyl)-3H-[1,2,3]triazolo[4,5-d]pyrimidin-3-ylmethyl)phenyl)acetamide] had a melting point of 253.6 to 254 °C.

In turn, `Nc1nc(-c2ccco2)c2nnn(Cc3ccc(F)c(N)c3)c2n1` [Example 165, 3-(3-amino-4-fluorobenzyl)-7-(2-furyl)-3H-[1,2,3]triazolo[4,5-d]pyrimidine-5-amine] returned a melting point of 259.7 to 259.8 °C.

In the case of `CC(c1ccc(C(F)(F)F)cc1)n1nnc2c(-c3ccco3)nc(N)nc21` (stereo not shown) [Example 256, 7-(2-furyl)-3-(1-(4-frifluoromethylphenyl)ethyl)-3H-[1,2,3]triazolo[4,5-d]pyrimidine-5-amine], the melting point fell in the range of 167.6 to 168.1 °C.

With `CS(=O)(=O)Cc1cccc(Cn2nnc3c(-c4ccco4)nc(N)nc32)n1` [Example 238, 7-(2-furyl)-3-(6-methylsulphonylmethyl-2-pyridylmethyl)-3H-[1,2,3]triazolo[4,5-d]pyrimidine-5-amine], the melting point was in the range of 238.2 to 238.6 °C.

The compound `CC(=O)NCc1cccc(Cn2nnc3c(-c4ccco4)nc(N)nc32)n1` [Example 177, 3-(6-Acetamidomethyl-2-pyridylmethyl)-7-(2-furyl)-3H-[1,2,3]triazolo[4,5-d]pyrimidine-5-amine] registered a melting point of 245.9 to 247 °C.
